The source of these data is ChEMBL document CHEMBL1143219, “Proline bis-amides as potent dual orexin receptor antagonists” (Bioorg Med Chem Lett, 2008).

For series [1], the target named is T1, Thromboxane A2 receptor (Homo sapiens) (UniProt P21731).
T1 sequence (whole entry): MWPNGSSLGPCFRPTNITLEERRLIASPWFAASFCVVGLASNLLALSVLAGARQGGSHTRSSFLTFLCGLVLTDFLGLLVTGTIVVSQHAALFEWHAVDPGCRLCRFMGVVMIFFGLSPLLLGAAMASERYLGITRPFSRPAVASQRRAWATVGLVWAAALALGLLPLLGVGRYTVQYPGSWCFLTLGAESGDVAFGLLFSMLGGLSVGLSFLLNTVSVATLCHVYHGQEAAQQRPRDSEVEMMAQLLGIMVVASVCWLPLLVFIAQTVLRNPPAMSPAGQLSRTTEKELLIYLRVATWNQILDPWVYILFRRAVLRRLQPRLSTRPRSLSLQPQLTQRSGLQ
Briefly: Inhibition of thromboxane A2 receptor.

The nature of series [2]: Clearance in rat. The format is ADME, organism-based. To be noted: in vivo.
The test system of series [3] is Rattus norvegicus. Kind of series: Inhibition of ADL-orexin-B-induced increase in locomotion activity in ip dosed rat. The format is functional, organism-based.
A short description of series [4]: Drug level in rat cerebrospinal fluid at 100 mg/kg, ip after 30 mins. Details: dose 100 mg/kg, route intraperitoneal. The conditions noted are these: read-out: Drug uptake. Format: ADME, organism-based.
Series [5] is described as follows: Partition coefficient, log P of the compound. The conditions noted are these: octanol/water. Format: physicochemical.
For series [6], the target named is Synaptic vesicular amine transporter (Homo sapiens) (UniProt Q05940). Kind of series: Inhibition of monoamine transporter.
Series [7] in a line: Drug level in rat brain at 100 mg/kg, ip after 30 mins. Format: ADME, organism-based. The conditions noted are these: read-out: Drug uptake. Also noted: dose 100 mg/kg, route intraperitoneal.
Series [8] deals with T2, Orexin receptor type 2 (Homo sapiens) (UniProt O43614).
T2 sequence (whole entry): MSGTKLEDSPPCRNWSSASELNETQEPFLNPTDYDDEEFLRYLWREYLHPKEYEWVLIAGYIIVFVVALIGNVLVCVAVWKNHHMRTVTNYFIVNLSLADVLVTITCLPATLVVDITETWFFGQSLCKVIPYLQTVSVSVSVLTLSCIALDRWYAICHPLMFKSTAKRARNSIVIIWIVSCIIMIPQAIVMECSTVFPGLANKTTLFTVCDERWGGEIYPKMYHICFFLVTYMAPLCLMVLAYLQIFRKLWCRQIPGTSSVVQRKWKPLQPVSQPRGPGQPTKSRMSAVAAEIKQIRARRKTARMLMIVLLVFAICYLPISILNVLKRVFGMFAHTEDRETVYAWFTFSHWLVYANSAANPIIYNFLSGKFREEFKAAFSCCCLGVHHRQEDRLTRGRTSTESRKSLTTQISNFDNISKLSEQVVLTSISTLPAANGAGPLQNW
Briefly: Antagonist activity at human OX2R expressed in CHOK1 cells assessed as effect on calcium mobilization. The conditions noted are these: CHO-K1. The format is functional, cell-based.

A short description of series [9]: Half life in rat. The format is ADME, organism-based. To be noted: in vivo.
Series [10] in a line: Oral bioavailability in rat. The format is ADME, organism-based. The conditions noted are these: in vivo.
Series [11] is described as follows: Inhibition of prostanoid receptor.
Series [12] is described as follows: Drug level in rat plasma at 100 mg/kg, ip after 30 mins. Details: dose 100 mg/kg, route intraperitoneal. The format is ADME, organism-based.
Series [13] deals with T3, Orexin receptor type 2 (Homo sapiens, UniProt O43614).
T3 sequence (O43614 whole entry): T2 sequence (whole entry)
Briefly: Displacement of [3H](S)-N-(2-(1H-pyrrol-1-yl)phenyl)-1-(2-(1-methyl-1H-benzo[d]imidazol-2-ylthio)acetyl)pyrrolidine-2-carboxamide from human OX2R expressed in CHO cells. Format: cell-based. Background: Displacement assays read how much labelled ligand stays bound in the presence of the test substance.

Series [14] concerns the target T4, Orexin/Hypocretin receptor type 1 (Homo sapiens, UniProt O43613).
T4 sequence (O43613 whole entry): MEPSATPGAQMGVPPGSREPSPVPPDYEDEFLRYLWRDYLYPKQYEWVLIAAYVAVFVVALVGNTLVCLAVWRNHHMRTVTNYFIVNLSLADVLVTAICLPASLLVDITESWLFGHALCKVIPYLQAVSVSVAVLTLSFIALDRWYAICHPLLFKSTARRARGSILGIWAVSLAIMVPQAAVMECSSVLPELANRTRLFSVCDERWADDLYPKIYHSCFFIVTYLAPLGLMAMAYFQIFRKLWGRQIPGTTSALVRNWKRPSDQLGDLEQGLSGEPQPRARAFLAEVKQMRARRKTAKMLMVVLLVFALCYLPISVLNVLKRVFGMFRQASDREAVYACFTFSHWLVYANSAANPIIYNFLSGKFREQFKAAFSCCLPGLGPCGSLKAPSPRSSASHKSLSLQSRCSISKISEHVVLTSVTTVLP
Briefly: Displacement of [3H](S)-1-[2-(1-methyl-1H-benzoimidazol-2-ylsulfanyl)-acetyl]-pyrrolidine-2-carboxylic acid biphenyl-2-ylamide from human OX1R expressed in CHO cells. Format: cell-based.

Series [15] has as its target T5, Orexin/Hypocretin receptor type 1 (Rattus norvegicus) (UniProt P56718).
T5 sequence (whole entry): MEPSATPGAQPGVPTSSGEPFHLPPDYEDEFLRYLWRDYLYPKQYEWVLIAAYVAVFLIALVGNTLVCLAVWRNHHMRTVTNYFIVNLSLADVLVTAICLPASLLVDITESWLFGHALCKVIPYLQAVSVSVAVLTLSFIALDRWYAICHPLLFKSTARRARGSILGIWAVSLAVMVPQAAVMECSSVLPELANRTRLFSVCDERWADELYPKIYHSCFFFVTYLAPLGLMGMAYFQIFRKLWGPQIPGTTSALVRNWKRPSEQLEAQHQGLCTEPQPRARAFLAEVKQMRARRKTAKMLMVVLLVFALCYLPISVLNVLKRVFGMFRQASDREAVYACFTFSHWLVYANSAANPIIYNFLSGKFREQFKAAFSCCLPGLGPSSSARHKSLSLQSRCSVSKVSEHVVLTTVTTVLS
Briefly: Antagonist activity at rat OX1R assessed as effect on calcium mobilization. The format is functional. On the technique in general: Calcium flux is commonly read through the fluorescence of an indicator in the cells.

Series [16] is described as follows: Inhibition of sodium channel at site 2.
In series [17] the target is T6, Thyrotropin-releasing hormone receptor (Homo sapiens) (UniProt P34981).
T6 sequence (whole entry): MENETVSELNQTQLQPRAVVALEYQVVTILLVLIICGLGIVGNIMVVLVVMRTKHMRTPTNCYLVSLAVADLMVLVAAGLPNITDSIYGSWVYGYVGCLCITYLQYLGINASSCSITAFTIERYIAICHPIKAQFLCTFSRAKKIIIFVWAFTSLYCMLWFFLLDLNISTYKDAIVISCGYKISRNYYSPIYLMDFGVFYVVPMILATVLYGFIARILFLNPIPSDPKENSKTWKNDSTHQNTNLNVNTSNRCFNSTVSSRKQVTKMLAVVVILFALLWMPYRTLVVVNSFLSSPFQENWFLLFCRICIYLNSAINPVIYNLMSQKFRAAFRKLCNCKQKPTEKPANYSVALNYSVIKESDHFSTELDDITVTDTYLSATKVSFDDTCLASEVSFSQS
Briefly: Inhibition of TRH receptor.

Molecules are shown by their SMILES. Where only a bound is given, the exact number is not on record here.

Sequence of Synaptic vesicular amine transporter (Homo sapiens) (Q05940 whole entry): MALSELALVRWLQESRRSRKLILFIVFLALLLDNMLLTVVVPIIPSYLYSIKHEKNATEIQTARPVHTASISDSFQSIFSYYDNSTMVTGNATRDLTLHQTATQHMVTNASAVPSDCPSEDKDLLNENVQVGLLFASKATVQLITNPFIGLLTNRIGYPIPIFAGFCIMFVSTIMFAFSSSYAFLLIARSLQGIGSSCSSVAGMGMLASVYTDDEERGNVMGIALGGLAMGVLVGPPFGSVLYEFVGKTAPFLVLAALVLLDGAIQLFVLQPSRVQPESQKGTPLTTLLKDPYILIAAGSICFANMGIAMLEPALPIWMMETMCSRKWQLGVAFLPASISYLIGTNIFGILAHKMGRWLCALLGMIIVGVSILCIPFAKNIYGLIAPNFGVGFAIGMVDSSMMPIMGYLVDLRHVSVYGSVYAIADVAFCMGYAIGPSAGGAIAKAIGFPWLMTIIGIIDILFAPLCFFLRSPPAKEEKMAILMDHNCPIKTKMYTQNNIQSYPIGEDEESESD

For orientation: clearance means a measure of how efficiently the substance is removed, as volume per time. The low end stands for inefficient removal, the high end for efficient removal. One may read the logP as a log measure of how a compound divides between an organic and an aqueous phase. As usually defined, the half-life is how long it takes for the measured level to halve. High values mean slow loss, low ones fast loss. Broadly, the bioavailability is the share of a dose that reaches the circulation, judged against a reference dose that is usually intravenous. High values mean good availability, low ones poor availability. For orientation: Ki means the equilibrium dissociation constant of an inhibitor or competing ligand from its target. Low values mean higher affinity, high ones lower affinity. In the case of `Cn1c(SCC(=O)N2CCC[C@H]2C(=O)Nc2ccccc2-c2ccccc2)nc2ccccc21`, the Activity was less than 10 µM in series [1]; “Dose-dependent effect” in series [3]; less than 10 µM in series [6]; 4 nM in series [8]; less than 10 µM in series [11]. This compound also showed a clearance in series [2] of 3.7 mL/min/kg. Moreover, the concentration at 0.5 h in series [4] stood at 43 nM; in [7] it was 2370 nM; in [12], 3500 nM. The logP in [5] was determined as 3.4. Besides, the half-life in [9] is 18 min. This compound also yielded a bioavailability in series [10] of 11%. The inhibition constant (Ki) in series [13] is 0.2 nM.

Take `O=C(Nc1ccccc1-c1ccccc1)[C@@H]1CCCN1C(=O)CCc1nc2ccccc2[nH]1`: the Ki was determined as 40 nM in [14] and 6 nM in [13]. Also, the Activity in series [8] stood at 20 nM.

With `O=C(Nc1ccccc1-n1cccc1)[C@H]1CCCN1C(=O)CSc1nc2ccccc2[nH]1`, the Ki in [14] amounted to 2500 nM; in series [13], 131 nM.

Regarding `O=C(Nc1ccccc1)[C@@H]1CCCN1C(=O)CSc1nc2ccccc2[nH]1`, the Ki in series [14] worked out at 1400 nM; in series [13] it was 560 nM. Also, in [8], the Activity worked out at 4050 nM.

On to `COc1ccccc1-c1ccccc1NC(=O)[C@@H]1CCCN1C(=O)CCc1nc2ccccc2[nH]1`, for which the Ki in series [14] amounted to 86 nM; in series [13], 2 nM. For the same compound, the Activity in series [8] amounted to 5 nM.

As for `O=C(Nc1ccccc1-n1cccc1)[C@@H]1CCCN1C(=O)CSc1nc2ccccc2s1`, the Ki in series [14] came out at 39 nM; in [13], 2 nM. The Activity in series [8] turned out to be 11 nM.

For the compound `O=C(Nc1ccccc1-n1cccc1)[C@@H]1CCCN1C(=O)CCc1nc2ccccc2[nH]1`, the results for the Ki in [14] and in [13] were 130 nM and 11 nM, respectively. Moreover, the Activity in series [8] came out at 36 nM; in [15], 520 nM.

With `O=C(Nc1cccc(-c2ccccc2)c1)[C@@H]1CCCN1C(=O)CSc1nc2ccccc2[nH]1`, the Ki in series [14] was found to be 500 nM; in series [13] it was 280 nM. In addition, the Activity in series [8] worked out at 2640 nM.

Turning to `O=C(Nc1ccccc1Oc1ccccc1)[C@@H]1CCCN1C(=O)CSc1nc2ccccc2[nH]1`, the Ki in series [14] turned out to be 69 nM; in series [13], 3 nM. Moreover, the Activity in [8] is 16 nM.

As to `Cc1ccc2[nH]c(SCC(=O)N3CCC[C@H]3C(=O)Nc3ccccc3-n3cccc3)nc2c1`, the Activity in series [8] was found to be 2 nM.

As to `O=C(Nc1ccccc1-c1ccccc1)[C@@H]1CCCN1C(=O)CSc1nc2ccccc2[nH]1`, the Ki in series [14] was 10 nM; in series [13], 0.6 nM. The Activity in [8] was 7 nM.

As for `O=C(Nc1ccccc1-n1cccc1)[C@@H]1CCCN1C(=O)CSc1nc2ccccc2[nH]1`, the results for the Ki in series [14] and in [13] were 28 nM and 1 nM, respectively. Further, the Activity in [8] was 6 nM.

In the case of `Cn1c(SCC(=O)N2CCC[C@H]2C(=O)Nc2ccccc2-n2cccc2)nc2ccccc21`, the figures for the Ki in series [14] and in series [13] were 9 nM and 0.3 nM, respectively. Also, the Activity in series [8] turned out to be 2 nM.

With `Cc1ccc2nc(SCC(=O)N3CCC[C@H]3C(=O)Nc3ccccc3-n3cccc3)[nH]c2c1`, the Ki is 3 nM in [14] and 0.2 nM in series [13].

As for `O=C(Nc1ccccc1-c1ccccc1F)[C@@H]1CCCN1C(=O)CCc1nc2ccccc2[nH]1`, the results for the Ki in series [14] and in series [13] were 27 nM and 3 nM, respectively. For the same compound, the Activity in series [8] stood at 4 nM.

For `Cn1c(CCC(=O)N2CCC[C@H]2C(=O)Nc2ccccc2-n2cccc2)nc2ccccc21`, the Ki was 49 nM in [14] and 2 nM in [13]. Moreover, the Activity in [8] was 3 nM.

For `O=C(Nc1ccccc1-n1cccc1)[C@@H]1CCCN1C(=O)CSc1nc2ccccc2o1`, the results for the Ki in [14] and in [13] were 120 nM and 8 nM, respectively. For the same compound, in series [8], the Activity was 28 nM.

Consider `Cc1ccc2c(c1)nc(SCC(=O)N1CCC[C@H]1C(=O)Nc1ccccc1-n1cccc1)n2C`, for which the Ki in [14] amounted to 0.7 nM; in series [13], 0.09 nM. For the same compound, in [8], the Activity stood at 8 nM.

Take `O=C(Nc1ccc(-c2ccccc2)cc1)[C@@H]1CCCN1C(=O)CSc1nc2ccccc2[nH]1`: the Ki in series [14] was determined as 2300 nM; in [13] it was 11 nM. Moreover, the Activity in series [8] was 143 nM.

For the compound `Cn1c(CCC(=O)N2CCC[C@H]2C(=O)Nc2ccccc2-c2ccccc2)nc2ccccc21`, the figures for the Activity in series [16], in [8] and in series [17] were less than 10 µM, 5 nM and less than 10 µM, respectively. The Ki in series [14] was found to be 15 nM; in [13], 0.8 nM. This compound also had a half-life in series [9] of 18 min.

`Cc1ccc2nc(SCC(=O)N3CCC[C@H]3C(=O)Nc3ccccc3-n3cccc3)n(C)c2c1`: the Ki in series [14] was determined as 2 nM; in [13], 0.1 nM. In addition, in series [8], the Activity amounted to 8 nM.
